Laboratory results as given in ChEMBL document CHEMBL1121517, “Estrogen receptor based imaging agents. 1. Synthesis and receptor binding affinity of some aromatic and D-ring halogenated estrogens” (J Med Chem, 1980).

Target: Estrogen receptor (Ovis aries) (UniProt P49885+Q9TU15)

Row | SMILES | RAC
1 | CCC(c1ccc(O)c(Br)c1)C(CC)c1cc(Br)c(O)c(Br)c1 (stereo not drawn) | 0.72
2 | CC[C@H](c1ccc(O)cc1)[C@@H](CC)c1ccc(O)cc1 | 300
3 | CCC(c1cc(Br)c(O)c(Br)c1)C(CC)c1cc(Br)c(O)c(Br)c1 (stereo not drawn) | < 0.17
4 | COc1ccc2c(c1)CC[C@@H]1[C@@H]2CC[C@]2(C)C(=O)[C@@H](Br)C[C@@H]12 | 0.14
5 | COc1ccc2c(c1)CC[C@@H]1[C@@H]2CC[C@]2(C)C(=O)CC[C@@H]12 | 12
6 | C[C@]12CC[C@@H]3c4ccc(O)cc4CC[C@H]3[C@@H]1C[C@H](I)[C@@H]2O | 57
7 | C[C@]12CC[C@@H]3c4cc(Br)c(O)cc4CC[C@H]3[C@@H]1CC[C@@H]2O | 1.2
8 | C[C@]12CC[C@@H]3c4ccc(O)cc4CC[C@H]3[C@@H]1C[C@@H](Br)[C@H]2O | 4.8
9 | C[C@]12CC[C@@H]3c4ccc(O)cc4CC[C@H]3[C@@H]1C[C@H](Br)[C@@H]2O | 4.7
10 | C[C@]12CC[C@@H]3c4ccc(O)cc4CC[C@H]3[C@@H]1C[C@@H](Cl)[C@@H]2O | 100
11 | C[C@]12CC[C@@H]3c4ccc(O)c(F)c4CC[C@H]3[C@@H]1CC[C@@H]2O | 128
12 | C[C@]12CC[C@@H]3c4ccc(O)cc4CC[C@H]3[C@@H]1C[C@@H](Br)[C@@H]2O | 127
13 | CCC(c1ccc(O)cc1)C(CC)c1ccc(O)c(Br)c1 (stereo not drawn) | 16
14 | CCC(c1ccc(O)c(F)c1)C(CC)c1ccc(O)c(F)c1 (stereo not drawn) | 64
15 | CCC(c1ccc(O)cc1)C(CC)c1ccc(O)c(F)c1 (stereo not drawn) | 205
16 | C[C@]12CC[C@@H]3c4ccc(O)c(Br)c4CC[C@H]3[C@@H]1CC[C@@H]2O | 10
17 | COc1ccc2c(c1)CC[C@@H]1[C@@H]2CC[C@]2(C)C(=O)[C@H](Br)C[C@@H]12 | 3.5
18 | CCC(c1ccc(O)c(I)c1)C(CC)c1cc(I)c(O)c(I)c1 (stereo not drawn) | 0.14
19 | CCC(c1ccc(O)cc1)C(CC)c1ccc(O)c(I)c1 (stereo not drawn) | 14
20 | C[C@]12CC[C@@H]3c4cc(F)c(O)cc4CC[C@H]3[C@@H]1CC[C@@H]2O | 86
21 | C[C@]12CC[C@@H]3c4ccc(O)cc4CC[C@H]3[C@@H]1C[C@@H](Cl)[C@H]2O | 9.2
22 | C[C@]12CC[C@@H]3c4ccc(O)cc4CC[C@H]3[C@@H]1C[C@@H](I)[C@@H]2O | 100
23 | C[C@]12CC[C@@H]3c4cc(I)c(O)cc4CC[C@H]3[C@@H]1CC[C@@H]2O | < 0.1
24 | CCC(c1cc(I)c(O)c(I)c1)C(CC)c1cc(I)c(O)c(I)c1 (stereo not drawn) | 0.002
25 | CCC(c1ccc(O)c(I)c1)C(CC)c1ccc(O)c(I)c1 (stereo not drawn) | 3.2
26 | CCC(c1ccc(O)c(Br)c1)C(CC)c1ccc(O)c(Br)c1 (stereo not drawn) | 2.6
27 | COc1ccc2c(c1)CC[C@@H]1[C@@H]2CC[C@]2(C)C(=O)[C@H](Cl)C[C@@H]12 | 0.48
28 | CCC(c1ccc(O)cc1)C(CC)c1cc(I)c(O)c(I)c1 (stereo not drawn) | 1.9
